# Experimental data as given in US20240228463A1, “SODIUM CHANNEL INHIBITORS AND METHODS OF DESIGNING SAME” (Genentech, Inc., priority 2021, published 2024).
# Where a name gives a salt, the structure may show the parent alone.
# Target: T1, hNaV1.7 (Homo sapiens, UniProt Q15858)
# T1 construct: expressed in transfected cells
# Test: Patch voltage clamp electrophysiology (EP), Syncropatch 384PE, Nav1.7 in CHO cells;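 further: Nav1.7 stably expressed from cDNA in CHO cells, holding potential of −50 mV kept for the entire experiment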
# Assay type: cell-based
# Conditions: hNaV1.7 EP_SP, holding potential −50 mV, inhibition based on 7.5 min compound incubation
# T1 sequence (Q15858 1-1977 isoform Q15858-3): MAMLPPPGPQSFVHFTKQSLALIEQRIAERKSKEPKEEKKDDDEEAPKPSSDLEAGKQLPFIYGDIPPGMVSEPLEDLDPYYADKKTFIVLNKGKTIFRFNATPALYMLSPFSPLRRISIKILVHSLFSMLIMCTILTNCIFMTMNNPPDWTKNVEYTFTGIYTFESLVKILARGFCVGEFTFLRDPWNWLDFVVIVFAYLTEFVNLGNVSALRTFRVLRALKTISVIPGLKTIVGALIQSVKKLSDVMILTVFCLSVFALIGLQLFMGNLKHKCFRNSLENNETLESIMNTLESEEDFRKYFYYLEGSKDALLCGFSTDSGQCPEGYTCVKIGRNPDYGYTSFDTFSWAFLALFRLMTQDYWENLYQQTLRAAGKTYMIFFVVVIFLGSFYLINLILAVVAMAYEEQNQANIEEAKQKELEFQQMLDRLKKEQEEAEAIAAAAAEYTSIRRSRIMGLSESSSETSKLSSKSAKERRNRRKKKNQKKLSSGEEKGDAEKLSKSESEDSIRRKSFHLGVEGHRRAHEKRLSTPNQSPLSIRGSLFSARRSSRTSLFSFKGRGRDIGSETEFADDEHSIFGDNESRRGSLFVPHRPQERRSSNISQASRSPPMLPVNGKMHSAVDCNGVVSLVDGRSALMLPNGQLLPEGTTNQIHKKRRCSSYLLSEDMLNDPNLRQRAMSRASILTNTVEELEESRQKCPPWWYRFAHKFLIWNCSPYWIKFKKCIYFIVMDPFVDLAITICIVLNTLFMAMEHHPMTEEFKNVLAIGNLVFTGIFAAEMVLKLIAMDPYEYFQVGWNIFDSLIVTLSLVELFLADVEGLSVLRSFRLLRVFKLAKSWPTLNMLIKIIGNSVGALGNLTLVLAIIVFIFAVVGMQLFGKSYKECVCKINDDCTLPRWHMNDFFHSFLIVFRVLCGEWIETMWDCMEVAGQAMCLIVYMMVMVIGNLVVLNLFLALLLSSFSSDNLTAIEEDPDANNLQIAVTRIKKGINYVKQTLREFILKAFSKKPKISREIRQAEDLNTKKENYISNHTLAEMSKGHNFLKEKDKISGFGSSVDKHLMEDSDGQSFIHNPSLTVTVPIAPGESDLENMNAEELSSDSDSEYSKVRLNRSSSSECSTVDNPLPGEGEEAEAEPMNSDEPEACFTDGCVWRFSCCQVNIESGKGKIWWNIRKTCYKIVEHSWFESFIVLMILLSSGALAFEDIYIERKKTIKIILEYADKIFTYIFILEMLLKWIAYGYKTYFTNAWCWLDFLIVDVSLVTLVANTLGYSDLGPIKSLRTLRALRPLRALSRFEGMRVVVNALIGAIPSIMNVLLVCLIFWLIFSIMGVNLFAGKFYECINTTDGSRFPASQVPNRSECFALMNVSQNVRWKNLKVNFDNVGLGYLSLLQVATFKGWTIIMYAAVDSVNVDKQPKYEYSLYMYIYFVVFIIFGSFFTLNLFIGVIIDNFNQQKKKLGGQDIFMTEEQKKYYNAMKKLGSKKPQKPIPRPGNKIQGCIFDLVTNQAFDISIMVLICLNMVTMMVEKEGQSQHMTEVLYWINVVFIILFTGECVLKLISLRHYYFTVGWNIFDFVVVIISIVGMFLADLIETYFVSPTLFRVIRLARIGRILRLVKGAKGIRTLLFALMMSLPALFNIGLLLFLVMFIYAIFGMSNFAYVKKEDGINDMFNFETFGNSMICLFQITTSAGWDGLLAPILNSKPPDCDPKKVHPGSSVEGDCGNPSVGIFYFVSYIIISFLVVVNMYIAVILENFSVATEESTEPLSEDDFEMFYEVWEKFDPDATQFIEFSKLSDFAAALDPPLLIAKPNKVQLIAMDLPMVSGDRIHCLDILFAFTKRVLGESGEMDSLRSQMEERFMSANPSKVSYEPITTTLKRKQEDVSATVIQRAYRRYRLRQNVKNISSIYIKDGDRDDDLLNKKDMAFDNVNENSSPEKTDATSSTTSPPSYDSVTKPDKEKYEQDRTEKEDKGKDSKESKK
row,SMILES,IC50 [nM]
1,"COc1cc(-c2cccc(C(F)(F)F)c2)c(F)cc1N1C(=O)CO[C@@H]2CN(S(=O)(=O)Nc3noc4ccc(C5CC5)cc34)CC[C@H]21 (single isomer, unassigned) [Example 93]",110

# Same assay, conditions: holding potential −50 mV, inhibition based on 7.5 min compound incubation, read-out: hNaV1.7 EP_SP
row,SMILES,IC50 [nM]
1,"C[C@H]1CCCCN1S(=O)(=O)NC(=O)c1cc(Cl)c(OCC2CCCC2)cc1F (single isomer, unassigned) [Example 224]",40
2,"O=C(NS(=O)(=O)c1ccc(OCC2CCNC2)cc1)c1cc(Cl)c(OCC2CCCC2)cc1F (stereo in doubt) [Example 302, (R)-5-chloro-4-(cyclopentylmethoxy)-2-fluoro-N-((4-(pyrrolidin-3-ylmethoxy)phenyl)sulfonyl)benzamide]",120
3,"O=C(NS(=O)(=O)CCOCc1ccccc1)c1cc(Cl)c(OCC2CCCC2)cc1F [Example 274, N-((2-(benzyloxy)ethyl)sulfonyl)-5-chloro-4-(cyclopentylmethoxy)-2-fluorobenzamide]",230
4,"O=C(NS(=O)(=O)N1CCC(OC2CCNC2)CC1)c1cc(C2CC2)c(OCC2CCCC2)cc1F (stereo in doubt) [Example 30, (S)-4-(cyclopentylmethoxy)-5-cyclopropyl-2-fluoro-N-((4-(pyrrolidin-3-yloxy)piperidin-1-yl)sulfonyl)benzamide 2,2,2-trifluoroacetate]",16
5,"CN1CC(OC2CCN(S(=O)(=O)NC(=O)c3cc(C4CC4)c(OCC4CCCC4)cc3F)CC2)C1 [Example 4, 4-(cyclopentylmethoxy)-5-cyclopropyl-2-fluoro-N-((4-((1-methylazetidin-3-yl)oxy)piperidin-1-yl)sulfonyl) benzamide]",15
6,"O=C(NS(=O)(=O)N1CC2(CCO2)C1)c1cc(Cl)c(OCC2CCCC2)cc1F [Example 228, N-((1-oxa-6-azaspiro[3.3]heptan-6-yl)sulfonyl)-5-chloro-4-(cyclopentylmethoxy)-2-fluorobenzamide]",210
7,"O=C(NS(=O)(=O)c1ccc(OCC2CCCN2)cc1)c1cc(Cl)c(OCC2CCCC2)cc1F (stereo not shown) [Example 305, 5-chloro-4-(cyclopentylmethoxy)-2-fluoro-N-((4-(pyrrolidin-2-ylmethoxy)phenyl)sulfonyl)benzamide]",360
8,"O=C(NS(=O)(=O)c1ccc(OCc2ccccc2)cc1)c1cc(C2CC2)c(OCC2CCCC2)cc1F [Example 83, N-((4-(benzyloxy)phenyl)sulfonyl)-4-(cyclopentylmethoxy)-5-cyclopropyl-2-fluorobenzamide]",92
9,"CC[C@H](C)S(=O)(=O)NC(=O)c1cc(Cl)c(OCC2CCCC2)cc1F (single isomer, unassigned) [Example 254]",14
10,"Cc1csc(S(=O)(=O)NC(=O)c2cc(Cl)c(OCC3CCCC3)cc2F)c1 [Example 252, 5-chloro-4-(cyclopentylmethoxy)-2-fluoro-N-((4-methylthiophen-2-yl)sulfonyl)benzamide]",110
11,"O=C(NS(=O)(=O)CCCOc1cccc(C(F)(F)F)c1)c1cc(Cl)c(OCC2CCCC2)cc1F [Example 253, 5-chloro-4-(cyclopentylmethoxy)-2-fluoro-N-((3-(3-(trifluoromethyl)phenoxy)propyl)sulfonyl)benzamide]",420
12,"CC[C@@H](C)S(=O)(=O)NC(=O)c1cc(Cl)c(OCC2CCCC2)cc1F (single isomer, unassigned) [Example 255]",26
13,"Cn1nccc1COc1ccc(S(=O)(=O)NC(=O)c2cc(Cl)c(OCC3CCCC3)cc2F)cc1 [Example 315, 5-chloro-4-(cyclopentylmethoxy)-2-fluoro-N-((4-((1-methyl-1H-pyrazol-5-yl)methoxy)phenyl)sulfonyl)benzamide]",47
14,"C[C@H]1C[C@@H]1S(=O)(=O)NC(=O)c1cc(Cl)c(OCC2CCCC2)cc1F (single isomer, unassigned) [Example 250]",9.8
15,"CN(C)[C@H]1CCCC[C@@H]1Oc1ccc(S(=O)(=O)NC(=O)c2cc(C3CC3)c(OCC3CCCC3)cc2F)c(F)c1 [Example 65, 4-(cyclopentylmethoxy)-5-cyclopropyl-N-((4-(((1S,2S)-2-(dimethylamino)cyclohexyl)oxy)-2-fluorophenyl)sulfonyl)-2-fluorobenzamide]",25
16,"COC[C@@H](C)S(=O)(=O)NC(=O)c1cc(Cl)c(OCC2CCCC2)cc1F (single isomer, unassigned) [Example 249]",110
17,"CC(C)COc1cc(F)c(C(=O)NS(=O)(=O)N2CCC(OC3CN(C)C3)CC2)cc1C1CC1 [Example 237, 5-cyclopropyl-2-fluoro-4-isobutoxy-N-((4-((1-methylazetidin-3-yl)oxy)piperidin-1-yl)sulfonyl)benzamide formic acid]",50
18,"CN1CC[C@H](OC2CCN(S(=O)(=O)NC(=O)c3cc(Cl)c(OCC4CCCC4)cc3F)CC2)C1 (single isomer, unassigned) [Example 326]",230

row,SMILES,IC50 [nM]
1,"O=C(NS(=O)(=O)c1ccc2c(c1)CCO2)c1cc(Cl)c(OCC2CCCC2)cc1F [Example 271, 5-chloro-4-(cyclopentylmethoxy)-N-((2,3-dihydrobenzofuran-5-yl)sulfonyl)-2-fluorobenzamide]",260
2,"CN(C)[C@H]1CCCC[C@@H]1OC1CCN(S(=O)(=O)NC(=O)c2cc(C3CC3)c(OCC3CCCC3)cc2F)CC1 [Example 331, 4-(cyclopentylmethoxy)-5-cyclopropyl-N-((4-(((1S,2S)-2-(dimethylamino)cyclohexyl)oxy)piperidin-1-yl)sulfonyl)-2-fluorobenzamide]",140
3,"O=C(NS(=O)(=O)c1ccc(OC2CC2)cc1)c1cc(Cl)c(OCC2CCCC2)cc1F [Example 276, 5-chloro-4-(cyclopentylmethoxy)-N-((4-cyclopropoxyphenyl)sulfonyl)-2-fluorobenzamide]",130
4,"O=C(NS(=O)(=O)c1ccc(OC(F)(F)F)cc1Cl)c1cc(Cl)c(OCC2CCCC2)cc1F [Example 293, 5-chloro-N-((2-chloro-4-(trifluoromethoxy)phenyl)sulfonyl)-4-(cyclopentylmethoxy)-2-fluorobenzamide]",850
5,"CNC1CN(S(=O)(=O)NC(=O)c2cc(Cl)c(OCC3CCCC3)cc2F)C1 [Example 226, 5-chloro-4-(cyclopentylmethoxy)-2-fluoro-N-((3-(methylamino)azetidin-1-yl)sulfonyl)benzamide formate]",750
6,"CN(C)[C@H]1CCCC[C@@H]1Nc1cc(F)c(S(=O)(=O)Nc2ccc(OCCCc3ccc(C(F)(F)F)cc3)cn2)cc1Cl [Example 103, 5-chloro-4-(((1S,2S)-2-(dimethylamino)cyclohexyl)amino)-2-fluoro-N-(5-(3-(4-(trifluoromethyl)phenyl)propoxy)pyridin-2-yl) benzenesulfonamide]",220
7,"O=C(NS(=O)(=O)c1ccc(OC2CCNC2)cc1)c1cc(Cl)c(OCC2CCCC2)cc1F (stereo not shown) [Example 325, 5-chloro-4-(cyclopentylmethoxy)-2-fluoro-N-((4-(pyrrolidin-3-yloxy)phenyl)sulfonyl)benzamide]",240
8,"O=C(NS(=O)(=O)c1ccc(OCc2cccc(F)c2)cc1)c1cc(Cl)c(OCC2CCCC2)cc1F [Example 298, 5-chloro-4-(cyclopentylmethoxy)-2-fluoro-N-((4-((3-fluorobenzyl)oxy)-phenyl)sulfonyl)benzamide]",220
9,"O=C(NS(=O)(=O)N1CCC(OC2CN(C3CC3)C2)CC1)c1cc(Cl)c(OCC2CCCC2)cc1F [Example 12, 5-chloro-4-(cyclopentylmethoxy)-N-((4-((1-cyclopropylazetidin-3-yl)oxy)piperidin-1-yl)sulfonyl)-2-fluorobenzamide]",29
10,"CN(C)[C@H]1CCCC[C@@H]1Nc1ccc(S(=O)(=O)Nc2nc3ccc(OCC4CCCC4)cc3s2)c(F)c1 [Example 96, N-(6-(cyclopentylmethoxy)benzo[d]thiazol-2-yl)-4-(((1S,2S)-2-(dimethyl-amino)cyclohexyl)-amino)-2-fluorobenzenesulfonamide formate]",8.8
11,"C[C@H]1Cc2ccccc2N(S(=O)(=O)NC(=O)c2cc(Cl)c(OCC3CCCC3)cc2F)C1 (single isomer, unassigned) [Example 16]",240
12,"CCc1cccc(S(=O)(=O)NC(=O)c2cc(Cl)c(OCC3CCCC3)cc2F)c1 [Example 244, 5-chloro-4-(cyclopentylmethoxy)-N-((3-ethylphenyl)sulfonyl)-2-fluorobenzamide]",770
13,"O=C(NS(=O)(=O)c1ccc2c(c1)CCCO2)c1cc(Cl)c(OCC2CCCC2)cc1F [Example 265, 5-chloro-N-(chroman-6-ylsulfonyl)-4-(cyclopentylmethoxy)-2-fluorobenzamide]",330
14,"O=C(NS(=O)(=O)N1CCC(CC2CNC2)CC1)c1cc(Cl)c(OCC2CCCC2)cc1F [Example 40, N-((4-(azetidin-3-ylmethyl)piperidin-1-yl)sulfonyl)-5-chloro-4-(cyclopentylmethoxy)-2-fluorobenzamide 2,2,2-trifluoroacetate]",59
15,"CN(C)C[C@@H]1CN(S(=O)(=O)NC(=O)c2cc(Cl)c(OCC3CCCC3)cc2F)CCO1 (single isomer, unassigned) [Example 28]",230
16,"NC(=O)[C@@H]1Cc2cc(S(=O)(=O)NC(=O)c3cc(Cl)c(OCC4CCCC4)cc3F)ccc2O1 [Example 277, (S)-5-(N-(5-chloro-4-(cyclopentylmethoxy)-2-fluorobenzoyl)sulfamoyl)-2,3-dihydrobenzofuran-2-carboxamide]",590
17,"CN(C)[C@H]1CCCC[C@@H]1Nc1cc(F)c(S(=O)(=O)Nc2nc3ccc(OCC4CCCC4)cc3s2)cc1Cl [Example 202, 5-chloro-N-(6-(cyclopentylmethoxy)benzo[d]thiazol-2-yl)-4-(((1S,2S)-2-(dimethylamino)cyclohexyl)amino)-2-fluorobenzenesulfonamide]",22
18,"COc1ccc2nc(NS(=O)(=O)c3ccc(N[C@H]4CCCC[C@@H]4N(C)C)cc3F)sc2c1 [Example 201, 4-(((1S,2S)-2-(dimethylamino)cyclohexyl)amino)-2-fluoro-N-(6-methoxybenzo[d]thiazol-2-yl)benzenesulfonamide]",370
